Laboratory results reported in paper PMC11726150, “Pre‐ADMET studies of 5‐(3′,4′‐dihydroxyphenyl)‐γ‐valerolactone, the bioactive intestinal metabolite of proanthocyanidins” (Archiv Der Pharmazie, 2024).
“Also recorded” adds a separate entry of the source. Where two headings read alike, the source gives them in different places.

Tests used:
[1] = MTT cell viability assay; format: cell-based, human; details: human, Caco2 cells; Caco2, 1.5–50 µM, 6 h exposure; read-out: cells remaining viable
Method: (§1) The effect of test samples on cell viability was measured using an MTT assay. Briefly, exponentially growing 2 × 10^4 cells/200 μL were seeded in 96‐well plates and allowed to grow until reaching their differentiation state. Cells were treated with different concentrations of VL (50–1.6 µM) and positive control camptothecin (30–1 μM) serially diluted in serum‐free medium. After incubation, 10 μL of MTT dye (5 mg/mL stock in PBS) was added to each well, and plates were additionally incubated for 4 h. Further, media were aspirated, and cells were washed with 100 μL of phosphate buffer saline. The formazan blue crystals formed by viable cells were dissolved in 150 μL of DMSO, and the absorbance was measured at 580 nm on a Bio‐Tek, Synergy HT Multi‐Mode, plate reader. The % decrease in viability of sample‐treated cells was calculated compared with vehicle‐treated cells.^[ [46] ^]

[2] = system: Caco2 cells; experiment: MTT cell viability assay; format: cell-based, human; details: Caco2, 1.5–50 µM, up to 24 and 48 h
Method: as §1

[3] = system: HepG2 cells; experiment: MTT cell viability assay; format: cell-based, human; details: HepG2, 1.5–50 µM, up to 24 and 48 h
Method: as §1

[4] = system: LS174T cells; experiment: MTT cell viability assay; format: cell-based, human; details: 1.5–50 µM, up to 24 and 48 h
Method: as §1

[5] = MTT cell viability assay; format: cell-based, canine; details: dog, Wt-MDCK cells, 1.5–50 µM, 6 h exposure, read-out: cells remaining viable
Method: as §1

[6] = Metabolic stability assay with human S9 liver fraction; format: in vitro ADME
Method: (§2) HLMs and S9 fractions were used to determine, respectively, phases I and II metabolism of VL. A mixture of the activating cofactors (NADP^+ and UDPGA) and enzymes (G6PO4 and G6PDH) were used to stimulate the metabolism; in the microsome assay UDPGA was not needed. The final concentrations of cofactors NADPH and UDPGA were 1 mM each, while for the enzymes G6PO4 and G6PDH were 10 mM and 2 U/mL, respectively. The phosphate buffer was prepared as a 100 mM solution, pH 7.4, containing 10 mM magnesium chloride in deionized water. Testosterone and 7‐hydroxycoumarin were used as positive controls for phases I and II metabolism, and stock reference solutions of controls and VL were prepared, respectively, at 5 mM and 10 mM concentration in DMSO, and then diluted to a final test concentration of 10 µM. S9 fraction or microsome, final concentration 1 mg/mL, were preincubated with a test compound for 5 min at 37°C in the phosphate buffer, pH 7.4, and then the reactions were initiated by adding the cofactor mixture. A negative control sample was prepared replacing the reaction enzymes with water in the presence of a reaction mixture and test compound VL. At time points 0, 10, 20, 30, 45, 60, 90, and 120 min, 100 µL aliquots of the sample mixture were removed and quenched by the addition of two volumes of ice‐cold 50:50 ACN:MeOH containing the internal standard (cinnamic acid‐d6, 300 ng/mL final concentration). The quenched samples were then stored at −80°C overnight and defrosted before analysis, sonicated for 10 min, and centrifuged at 14,000 rpm for 15 min at 4°C to sediment the precipitated proteins before injection onto ultra performance liquid chromatography‐mass/mass (UPLC‐MS/MS) for analysis. T ½ was calculated using the interpolating point method using the nonlinear fit option of GraphPad Prism 8, while intrinsic clearance CL'int (mL/min/kg) was calculated as written in Equation (4) and as reported previously:^[ [23] ^] (4) CL^′int=0.693×Dose/T½.

[7] = Metabolic stability assay with human liver microsomes; format: in vitro ADME
Method: as §2, with “At time points 0, 10, 20, 30, 45, 60, 90, and 120 min, 100 µL aliquots of the sample mixture were removed and quenched by the addition of two volumes of ice‐cold 50:50 ACN:MeOH containing the internal standard (cinnamic acid‐d6, 300 ng/mL final concentration). The quenched samples were then stored at −80°C overnight and defrosted before analysis, sonicated for 10 min, and centrifuged at 14,000 rpm for 15 min at 4°C to sediment the precipitated proteins before injection onto ultra performance liquid chromatography‐mass/mass (UPLC‐MS/MS) for analysis.” left out, “(4) CL^′int=0.693×Dose/T½.” left out

[8] = target: T1, PXR (Homo sapiens, UniProt O75469); format: cell-based; design: expressed in transfected cells; host or cells: LS174T cells, transient electroporation; details: LS174T cells, all concentrations tested (1.5–50 μM), 24 h
T1 sequence (O75469 1-434): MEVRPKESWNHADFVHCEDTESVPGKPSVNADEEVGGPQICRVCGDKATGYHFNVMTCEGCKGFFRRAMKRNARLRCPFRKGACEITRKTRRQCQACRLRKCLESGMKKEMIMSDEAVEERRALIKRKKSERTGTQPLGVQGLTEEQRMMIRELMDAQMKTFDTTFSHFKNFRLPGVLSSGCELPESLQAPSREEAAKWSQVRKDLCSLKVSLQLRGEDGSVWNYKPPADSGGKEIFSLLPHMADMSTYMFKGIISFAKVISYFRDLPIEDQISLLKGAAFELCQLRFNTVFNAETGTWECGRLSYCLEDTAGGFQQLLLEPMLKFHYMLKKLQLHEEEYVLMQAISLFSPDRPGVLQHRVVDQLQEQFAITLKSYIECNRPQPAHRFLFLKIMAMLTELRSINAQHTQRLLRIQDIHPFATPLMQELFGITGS
Method: (§3) The PXR activation potential of VL was determined in transiently transfected HepG2 and LS174T cells as described earlier.^[ [50] ^] In brief, 24‐h‐old cells having 70%−80% confluency were trypsinized and transfected with pSG5‐hPXR (25 μg) and PCR‐5 (25 μg) plasmid DNA by electroporation at 180 V (1 pulse for 70 ms). Cells were incubated at room temperature for 8 min and floating dead cells were carefully removed. Cells were seeded in 96‐well plates at a density of 50,000 cells/well. […] Following 24 h of incubation, the culture medium was aspirated and 40 μL of luciferase reagent (Promega Corporation) was added to each well. Luminescence was measured using a Spectramax M5 plate reader (Molecular Devices) and the fold increase in luciferase activity among sample‐treated cells was calculated in comparison with the vehicle‐treated (DMSO) cells.

[9] = target: T1, PXR; format: cell-based; design: expressed in transfected cells; host or cells: HepG2 and LS174T cells, transient electroporation; details: HepG2 cells, all concentrations tested (1.5–50 μM), 24 h
Method: as §3

For `O=C1CCC(Cc2ccc(O)c(O)c2)O1` (stereo not shown) [VL, 5‐(3′,4′‐dihydroxyphenyl)‐γ‐valerolactone], the viability at 6 h [1] was over 90%, the “effect on cell viability” value [2] was “no significant effect” and the “effect on cell viability” value [3] was “no significant effect”. The “effect on cell viability” value [4] was “no significant effect”, the viability at 6 h [5] was over 90% and the “VL metabolized in the liver fraction” value ([6]; S9 liver fraction, 120 min) was 70.83%. The intrinsic clearance ([6]; human S9 fraction 1 mg/mL, 10 µM) was 0.784 µM/min, the half-life at 10 µM ([6]; liver S9 fraction, pH 7.4, human S9 fraction 1 mg/mL, 10 µM, NADPH + UDPGA, read-out: half‐life t ½) was 8.72 min and the “stability under negative control experimental conditions” value ([6]; reaction enzymes replaced with water, data not shown) was “stable”. The “half‐life t ½” value ([7]; HLM 1 mg/mL, 10 µM) was 23.084 min, the half-life at 10 µM ([7]; human, liver microsomes, pH 7.4, HLM 1 mg/mL, read-out: half‐life t ½) was 23.1 min and the “PXR transcriptional activity, fold increase vs vehicle” value [8] was “does not increase the PXR activity; also recorded: < twofold”. The “PXR transcriptional activity, fold increase vs vehicle” value [9] was “does not increase the PXR activity; also recorded: < twofold”.
